Data: the NIST ThermoML archive (doi:10.1021/je400274f)
“And” between values parts separate entries of the source, which are not always exact repeats. Equal values may be shown once. ± gives the expanded uncertainty stated by the source.

Details: 101.33 kPa, Liquid; for viscosity: Concentric cylinders viscometry; for speed of sound: Pulse-echo method; for mass density: Vibrating tube method

SMILES | viscosity (283.15 K) [mPa·s] | speed of sound (283.15 K) [m/s] | mass density (283.15 K) | viscosity (293.15 K) [mPa·s] | speed of sound (293.15 K) [m/s] | mass density (293.15 K) | viscosity (303.15 K) [mPa·s] | speed of sound (303.15 K) [m/s] | mass density (303.15 K) | viscosity (313.15 K) [mPa·s] | speed of sound (313.15 K) [m/s] | mass density (313.15 K) | viscosity (323.15 K) [mPa·s] | speed of sound (323.15 K) [m/s] | mass density (323.15 K) | viscosity (333.15 K) [mPa·s] | mass density (333.15 K) [kg/m3] | viscosity (343.15 K) [mPa·s] | mass density (343.15 K) [kg/m3] | viscosity (353.15 K) [mPa·s] | further results
CCC(C)CC(C)CC (centres undefined) [3,5-dimethylheptane] | 0.792 ± 0.018 | 1245.1 ± 1.9 | 734.1 ± 0.5 kg/m3 and 734 ± 0.4 kg/m3 | 0.688 ± 0.016 | 1203.3 ± 1.9 | 726.2 ± 0.4 kg/m3 and 726.3 ± 0.5 kg/m3 | 0.604 ± 0.014 | 1162 ± 1.9 | 718.4 ± 0.4 kg/m3 and 718.4 ± 0.5 kg/m3 | 0.508 ± 0.012 | 1121.3 ± 1.9 | 710.5 ± 0.4 kg/m3 and 710.5 ± 0.5 kg/m3 | 0.477 ± 0.012 | 1081.4 ± 1.9 | 702.5 ± 0.4 kg/m3 and 702.5 ± 0.5 kg/m3 | 0.428 ± 0.01 | 694.5 ± 0.5 | 0.386 ± 0.01 | 686.3 ± 0.5 | 0.35 ± 0.01 | mass density (353.15 K): 678 ± 0.5 kg/m3; viscosity (363.15 K): 0.319 ± 0.008 mPa·s; mass density (363.15 K): 669.7 ± 0.5 kg/m3; mass density (373.15 K): 661.2 ± 0.5 kg/m3
CCCCC(C)CCC (centres undefined) [4-methyloctane] | 0.719 ± 0.021 | 1254.9 ± 1.5 | 727.5 ± 0.4 kg/m3 and 727.6 ± 0.3 kg/m3 | 0.628 ± 0.021 | 1213 ± 1.5 | 719.8 ± 0.3 kg/m3 and 719.7 ± 0.4 kg/m3 | 0.554 ± 0.021 | 1171.6 ± 1.5 | 711.9 ± 0.3 kg/m3 and 711.7 ± 0.4 kg/m3 | 0.453 ± 0.08 | 1130.8 ± 1.5 | 703.9 ± 0.3 kg/m3 and 703.7 ± 0.4 kg/m3 | 0.441 ± 0.021 | 1090.7 ± 1.5 | 695.9 ± 0.3 kg/m3 and 695.7 ± 0.4 kg/m3 | 0.397 ± 0.021 | 687.5 ± 0.4 | 0.368 ± 0.06 | 679.3 ± 0.4 | 0.329 ± 0.04 | mass density (353.15 K): 671 ± 0.4 kg/m3; viscosity (363.15 K): 0.294 ± 0.04 mPa·s; mass density (363.15 K): 662.5 ± 0.4 kg/m3; viscosity (373.15 K): 0.261 ± 0.04 mPa·s; mass density (373.15 K): 653.9 ± 0.4 kg/m3
CCCCCCCCC(C)C [2-methyldecane] | 1.37 ± 0.02 | 1295.5 ± 1.3 | 745.7 ± 0.3 kg/m3 and 745.8 ± 0.3 kg/m3 | 1.15 ± 0.04 | 1256.2 ± 1.3 | 738.4 ± 0.3 kg/m3 and 738.3 ± 0.3 kg/m3 | 0.977 ± 0.021 | 1217.1 ± 1.3 | 730.9 ± 0.3 kg/m3 | 0.83 ± 0.017 | 1178.8 ± 1.3 | 723.5 ± 0.3 kg/m3 and 723.2 ± 0.3 kg/m3 | 0.736 ± 0.015 | 1141 ± 1.3 | 715.9 ± 0.3 kg/m3 and 715.7 ± 0.3 kg/m3 | 0.647 ± 0.017 | 708.1 ± 0.3 | 0.575 ± 0.017 | 700.5 ± 0.3 | 0.514 ± 0.015 | mass density (353.15 K): 692.8 ± 0.4 kg/m3; viscosity (363.15 K): 0.464 ± 0.013 mPa·s; mass density (363.15 K): 684.9 ± 0.4 kg/m3; viscosity (373.15 K): 0.422 ± 0.011 mPa·s; mass density (373.15 K): 677 ± 0.4 kg/m3
CCCCCCCC(C)C [2-methylnonane] | 1.037 ± 0.022 | 1271.4 ± 1.5 | 734.7 ± 0.4 kg/m3 and 734.5 ± 0.3 kg/m3 | 0.887 ± 0.02 | 1231.1 ± 1.5 | 726.9 ± 0.3 kg/m3 and 727.1 ± 0.4 kg/m3 | 0.768 ± 0.017 | 1191.3 ± 1.5 | 719.3 ± 0.3 kg/m3 and 719.4 ± 0.4 kg/m3 | 0.653 ± 0.015 | 1152 ± 1.5 | 711.6 ± 0.3 kg/m3 and 711.7 ± 0.4 kg/m3 | 0.595 ± 0.013 | 1113.4 ± 1.5 | 703.9 ± 0.3 kg/m3 and 703.9 ± 0.4 kg/m3 | 0.529 ± 0.012 | 696 ± 0.4 | 0.475 ± 0.011 | 688.1 ± 0.4 | 0.428 ± 0.01 | mass density (353.15 K): 680.2 ± 0.4 kg/m3; viscosity (363.15 K): 0.388 ± 0.009 mPa·s; mass density (363.15 K): 672.1 ± 0.4 kg/m3; viscosity (373.15 K): 0.355 ± 0.009 mPa·s; mass density (373.15 K): 664 ± 0.4 kg/m3
CCCCCCCCCC(C)CCCCCC (centres undefined) [7-methylhexadecane] | 5.36 ± 0.52 | 1392.5 ± 2.3 | 787.6 ± 0.6 kg/m3 | 4 ± 0.4 | 1354.9 ± 2.3 | 780.7 ± 0.6 kg/m3 | 3.09 ± 0.28 | 1317.7 ± 2.3 | 773.9 ± 0.6 kg/m3 and 773.8 ± 0.6 kg/m3 | 2.47 ± 0.22 | 1281.3 ± 2.3 | 767 ± 0.6 kg/m3 and 766.9 ± 0.6 kg/m3 | 2 ± 0.18 | 1245.5 ± 2.3 | 760.2 ± 0.6 kg/m3 and 760 ± 0.6 kg/m3 | 1.66 ± 0.16 | 753.1 ± 0.6 | 1.41 ± 0.12 | 746.2 ± 0.6 | 1.21 ± 0.08 | mass density (353.15 K): 739.3 ± 0.6 kg/m3; viscosity (363.15 K): 1.05 ± 0.08 mPa·s; mass density (363.15 K): 732.4 ± 0.6 kg/m3; viscosity (373.15 K): 0.91 ± 0.05 mPa·s; mass density (373.15 K): 725.4 ± 0.6 kg/m3
